# Where two headings read alike, the source gives them in different places.
# What was measured:
# [1] = target: T1, human adrenergic receptor (ADR) α1A (Homo sapiens, UniProt P35348); assay: ADRα1A activation, Ca2+ influx (Fluo-8) in overexpressing chem-1 cells; assay type: cell-based; conditions: for EC50: Ca2+ response, chem-1 cells, average (95% confidence interval), 7–9 experiments; for Emax: Chem-1; for ADRα1A Emax: % of maximal signal obtained by adrenaline, average (95% CI)
# T1 construct: host or cells: rat chem-1 cells
# T1 sequence (P35348 1-466): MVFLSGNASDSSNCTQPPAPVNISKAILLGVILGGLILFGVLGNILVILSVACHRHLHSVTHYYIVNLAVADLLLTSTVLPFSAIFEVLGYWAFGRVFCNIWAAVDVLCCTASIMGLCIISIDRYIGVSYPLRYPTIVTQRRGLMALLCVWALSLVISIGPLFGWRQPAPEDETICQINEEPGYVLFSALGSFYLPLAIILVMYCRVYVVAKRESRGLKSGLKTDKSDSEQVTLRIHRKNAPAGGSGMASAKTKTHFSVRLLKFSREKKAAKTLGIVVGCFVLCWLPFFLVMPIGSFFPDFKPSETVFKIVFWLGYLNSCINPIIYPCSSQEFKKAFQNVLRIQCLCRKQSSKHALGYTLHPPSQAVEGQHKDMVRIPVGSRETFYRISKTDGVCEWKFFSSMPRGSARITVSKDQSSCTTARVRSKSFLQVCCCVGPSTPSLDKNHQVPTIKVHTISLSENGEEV
# [2] = target: T2, human adrenergic receptor (ADR) α1D (Homo sapiens, UniProt P25100); assay: ADRα1D activation, Ca2+ influx (Fluo-8) in overexpressing chem-1 cells; assay type: cell-based; conditions: for ADRα1D Emax: % of maximal signal obtained by adrenaline, average (95% CI); for EC50: Ca2+ response, chem-1 cells, average (95% confidence interval), 7–9 experiments; for Emax: Chem-1
# T2 construct: host or cells: rat chem-1 cells
# T2 sequence (P25100 1-572): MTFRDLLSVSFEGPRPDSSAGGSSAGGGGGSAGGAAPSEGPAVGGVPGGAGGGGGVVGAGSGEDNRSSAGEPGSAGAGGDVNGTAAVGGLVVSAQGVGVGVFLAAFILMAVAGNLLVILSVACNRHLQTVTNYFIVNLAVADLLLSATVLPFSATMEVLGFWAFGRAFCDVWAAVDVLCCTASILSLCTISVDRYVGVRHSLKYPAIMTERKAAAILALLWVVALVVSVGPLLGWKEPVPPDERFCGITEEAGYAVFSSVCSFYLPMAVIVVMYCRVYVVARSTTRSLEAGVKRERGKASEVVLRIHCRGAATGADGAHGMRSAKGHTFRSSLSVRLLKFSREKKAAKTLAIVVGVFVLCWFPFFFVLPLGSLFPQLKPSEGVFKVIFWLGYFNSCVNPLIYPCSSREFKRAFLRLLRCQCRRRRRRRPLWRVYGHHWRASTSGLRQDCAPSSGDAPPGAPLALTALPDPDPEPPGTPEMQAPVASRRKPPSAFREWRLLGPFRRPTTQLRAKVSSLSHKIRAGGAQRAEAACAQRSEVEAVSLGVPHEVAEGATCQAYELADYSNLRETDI
# [3] = target: T3, human adrenergic receptor (ADR) β1 (Homo sapiens, UniProt P08588); assay: ADRβ1 activation, Ca2+ influx (Fluo-8) in overexpressing chem-1 cells; assay type: cell-based; conditions: for Emax: Chem-1, read-out: ADRβ1 Emax; for potency at ADRβ1, times less potent than adrenaline: relative to the endogenous agonist adrenaline; for ADRβ1 Emax: % of maximal signal obtained by adrenaline, average (95% CI)
# T3 construct: host or cells: rat chem-1 cells
# T3 sequence (P08588 whole entry): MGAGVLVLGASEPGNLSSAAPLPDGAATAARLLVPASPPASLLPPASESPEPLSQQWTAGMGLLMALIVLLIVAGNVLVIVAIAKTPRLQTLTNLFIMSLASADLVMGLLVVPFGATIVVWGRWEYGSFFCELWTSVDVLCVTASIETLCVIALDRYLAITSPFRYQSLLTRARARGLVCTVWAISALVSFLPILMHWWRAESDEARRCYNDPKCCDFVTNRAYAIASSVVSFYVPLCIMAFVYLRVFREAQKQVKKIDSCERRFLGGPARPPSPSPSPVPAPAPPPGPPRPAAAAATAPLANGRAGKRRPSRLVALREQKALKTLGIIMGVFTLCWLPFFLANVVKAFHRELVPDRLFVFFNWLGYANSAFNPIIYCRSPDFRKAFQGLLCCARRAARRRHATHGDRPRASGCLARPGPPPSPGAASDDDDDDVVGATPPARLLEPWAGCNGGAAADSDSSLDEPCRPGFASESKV
# Text: Cells overexpressing human ADRs α1A, α1B, α1D, α2A, α2B, β1 and β2 (Eurofins Discovery Services, St. Charles, MO, USA, product numbers: HTS087RTA, HTS158RTA, HTS216RTA, HTS096RTA, HTS157LRTA, HTS104RTA and HTS073RTA, respectively) were used to study the potency (EC50) and efficacy (Emax) of the selected compounds for these receptors by quantifying Ca^2+ influx upon receptor activation. ADRα1A, α1B, α1D, α2A, β1 and β2 were overexpressed in rat chem-1 cells. ADRα2B was overexpressed in HEK293 cells. The cells were seeded (10,000–50,000 cells/well) in a black 96-well plate (VWR International, Leuven, Belgium) and incubated at 37 °C and 5% CO2 for 24 h. After 24 h, the cells were washed with Hank’s balanced salt solution (HBSS) (Gibco, Paisley, UK) containing 0.35 g/L sodium bicarbonate and incubated with 5 µg/mL Fluo-8 AM in HBSS (pH 7.4) supplemented with 2.5 mM probenecid for 1 h. […] Peak tops of the obtained fluorescence response–time curves were corrected for baseline fluorescence and used to construct concentration–response relationships.
# Concentration–response relationships for TAAR1 activation are presented as percentages of the maximal intracellular cAMP level induced by full the TAAR1 agonist phenethylamine and corrected for baseline cAMP accumulation. […] Experiments were run in duplicate in 7–9 independent experiments for ADR and were run in 3–5 independent experiments for TAAR1.
# [4] = set-up: method as in earlier work; conditions: humans; ref 47 (Feng et al. 2012); cited from earlier work
# [5] = set-up: method as in PMID 33227193, PMID 31984737; conditions: humans, n = 3, cited from earlier work
Compound,EC50 [1],Emax [1],ADRα1D Emax [2],EC50 [2],EC50 [3],Emax [3],"potency at ADRβ1, times less potent than adrenaline [3]",Emax [2],ADRα1A Emax [1],maximal plasma concentration [4],ADRβ1 Emax [3],Human plasma level ([5]; 5.5 mg oral dose),Human plasma level ([5]; 100 mg oral dose)
CNC(C)C(O)c1ccc(O)cc1 (centres unmarked) [Methylsynephrine],44 µM,16%,-,> 300 µM,25 µM,75%,approximately 2500 times,,,,,,
"NCC(O)c1ccc(O)cc1 (centres unmarked) [p-Octopamine, p-octopamine]",11 µM,87%,,1.2 µM,,,,100%,,,,,
"Oc1ccc(CC2NCCc3cc(O)c(O)cc32)cc1 (centres unmarked) [Higenamine, higenamine]",> 300 µM,,-,> 300 µM,0.034 µM,105%,~3 times,,-,8.4 nM,,,
"NCCc1ccccc1 [Phenethylamine, phenethylamine]",> 300 µM,,-,> 300 µM,> 300 µM,,,,-,,-,,
CC(C)CCCC(C)N (centres unmarked),> 300 µM,,-,> 300 µM,> 300 µM,,,,-,,-,,
"CN(C)CCO [Dimethylaminoethanol, dimethylaminoethanol]",> 300 µM,,-,> 300 µM,> 300 µM,,,,-,,-,,
"CNCC(O)c1ccccc1 (centres unmarked) [Halostachine, halostachine]",8.7 µM,59%,,2.1 µM,> 300 µM,,,82%,,,-,,
"NCCc1ccc(O)cc1 [Tyramine, tyramine]",> 300 µM,,-,> 300 µM,,,,,-,,,,
"CN(C)CCc1ccccc1 [Dimethylphenethylamine, N,N-dimethylphenethylamine]",> 300 µM,,,8.4 µM,> 300 µM,,,7.9%,-,,-,,
"CC(CN)c1ccccc1 (stereo not drawn) [β-Methylphenethyl-amine, beta-methylphenethylamine]",> 300 µM,,-,> 300 µM,> 300 µM,,,,-,,-,,
"CCC(C)CC(C)N (centres unmarked) [1,3-Dimethylamylamine, 1,3-dimethylamylamine]",> 300 µM,,-,> 300 µM,> 300 µM,,,,-,,-,,
"CNCC(O)c1ccc(O)cc1 (centres unmarked) [p-Synephrine, p-synephrine]",2.4 µM,82%,,,,,,80%,,,,,
"CC(C)NCC(O)c1ccc(O)cc1 (centres unmarked) [Isopropyloctopamine, isopropyloctopamine]",> 300 µM,,-,> 300 µM,,,,,-,,,,
CC(C)CC(C)N (centres unmarked),> 300 µM,,-,> 300 µM,> 300 µM,,,,-,,-,,
"CN(C)CCc1ccc(O)cc1 [Hordenine, hordenine]",> 300 µM,,,34 µM,> 300 µM,,,23%,-,,-,15 nM,2.7 nM

# From publication PMC11174489, “In Vitro Activation of Human Adrenergic Receptors and Trace Amine-Associated Receptor 1 by Phenethylamine Analogues Present in Food Supplements” (Nutrients, 2024)
